Data set [1] deals with BaF3. The experiment in a line: Cytotoxicity against mouse BaF3 cells harboring EGFR L858R/T790M/C797S mutant assessed as reduction in cell viability incubated for 96 hrs by CellTiter-Glo assay. It is filed as functional, cell-based. The note with it: BaF3, 96 h. In general terms: ATP-based viability assays read luminescence as a measure of living cells.
Data set [2] relates to BaF3. Description: Inhibition of cell proliferation of mouse BaF3 cells expressing EGFR Del19/T790M/C797S mutant (unknown origin). It is filed as functional, cell-based.
The nature of the next data set: cells. The note with it: Mus musculus, Ba/F3 EGFR-T790M/C797S/L858R.
Data set [3] in a line: Inhibition of EGFR T790M/C797S double mutant (unknown origin). More on the design: species or system Homo sapiens.
In data set [4] the target is Epidermal growth factor receptor (Homo sapiens, UniProt P00533). The experiment in a line: Inhibition of wild type EGFR (unknown origin) by ELISA analysis.
In data set [5] the target is T1, Epidermal growth factor receptor (Homo sapiens, UniProt P00533, C797S/L858R/T790M). The experiment in a line: Inhibition of EGFR L858R/T790M/C797S mutant (unknown origin) using TK-substrate preincubated with enzyme for 30 mins followed by substrate for 10 mins by HTRF assay. (In general: Time-resolved FRET reads energy transfer from a long-lived donor to a nearby acceptor.)

Data set [6] has as its system BaF3. Description: Cytotoxicity against mouse BaF3 cells harboring wild type EGFR assessed as reduction in cell viability incubated for 72 hrs by CellTiter-Glo assay. The note with it: BaF3, 72 h. It is filed as functional, cell-based.
Data set [7] has as its system BaF3. The experiment in a line: Inhibition of EGFR phosphorylation in mouse BaF3 cells harboring EGFR L858R/T790M/C797S triple mutant at 10 uM by Western blotting analysis. It is filed as cell-based. A general note: A western blot detects proteins with antibodies after separation by electrophoresis.
Data set [8] has as its target Epidermal growth factor receptor (Homo sapiens, UniProt P00533, T790M/C797S/L858R). The experiment in a line: (§1) Inhibition of […]/T790M/C797S triple mutant (unknown origin) phosphorylation expressed in mouse BaF3 cells by HTRF assay. It is filed as cell-based. The note with it: baf3.
The target in data set [9] is T1, Epidermal growth factor receptor. Described as §1. It is filed as cell-based.
Data set [10] relates to BaF3. Description: Antiproliferative activity against mouse BaF3 cells harboring wild type EGFR assessed as reduction in cell growth. It is filed as functional, cell-based.
Data set [11] concerns BaF3. Description: Cytotoxicity against mouse BaF3 cells harboring EGFR-Del19/T790M/C797S mutant assessed as cell growth inhibition measured after 96 hrs by CellTiter-Glo luminescent assay. Conditions: BaF3, 96 h. It is filed as functional, cell-based.
The subject of data set [12] is PC-9. Description: Antitumor activity in OR-resistant human PC-9 cells xenografted in […] assessed as tumor growth inhibition at 60 mg/kg, po administered once daily for 14 days relative to control. It is filed as functional. The note with it: PC-9, 336 h, time 14 day, read-out: TGI.
For data set [13], the system named is BaF3. Description: Antiproliferative activity against mouse BaF3 cells harboring EGFR L858R/T790M/C797S triple mutant after 72 hrs by resazurin dye-based fluorescence assay. Conditions: BaF3, 72 h. It is filed as functional, cell-based.
For data set [14], the system named is PC-9. Description: Antitumor activity in OR-resistant human PC-9 cells xenografted in […] assessed as tumor growth inhibition at 30 mg/kg, po administered once daily for 14 days relative to control. The note with it: PC-9, 336 h, time 14 day, read-out: TGI. It is filed as functional.
Data set [15] relates to BaF3. Description: Cytotoxicity against mouse BaF3 cells harboring EGFR-Del19/T790M/C797S mutant assessed as cell growth inhibition measured after 72 hrs by CellTiter-Glo luminescent assay. Conditions: BaF3, 72 h. It is filed as functional, cell-based.
For data set [16], the system named is PC-9. Description: Antiproliferative activity against human PC-9 cells assessed as inhibition of cell growth incubated for 72 hrs by MTT assay. It is filed as functional, cell-based. Conditions: PC-9, 72 h.
Data set [17] is described as follows: Inhibition of EGFR-C797S/T790M/del19 mutant in mouse BaF3 cells assessed as reduction in EGFR phosphorylation incubated for 6 hrs by Western blotting analysis. It is filed as cell-based. The note with it: BaF3, 6 h.
The target in data set [18] is T1, Epidermal growth factor receptor. The experiment in a line: Inhibition of EGFR L858R/T790M/C797S triple mutant (unknown origin).
Data set [19] concerns PC-9. The experiment in a line: Antiproliferative activity against human PC-9 cells expressing EGFR Del19 mutant assessed as inhibition of cell growth measured after 72 hrs by MTT assay. It is filed as functional, cell-based. Conditions: PC-9, 72 h.
The subject of data set [20] is A-431. The experiment in a line: Cytotoxicity against human A-431 cells expressing wild type EGFR assessed as reduction in cell viability incubated for 96 hrs by CellTiter-Glo assay. Conditions: A-431, 96 h. It is filed as functional, cell-based.
Data set [21] deals with A-431. Description: Antiproliferative activity against human A-431 cells […] assessed as reduction in cell growth. It is filed as functional, cell-based.
The next data set relates to NIH3T3. Description: Antiproliferative activity against mouse NIH3T3 cells expressing EGFR Del19/T790M/C797S mutant assessed as reduction in cell proliferation incubated for 72 hrs by MTT assay. The note with it: NIH3T3, 72 h. It is filed as functional, cell-based.
Data set [22] concerns the target T1, Epidermal growth factor receptor. Description: Inhibition of EGFR L858R/T790M/C797S triple mutant (unknown origin) expressed in Bac-to-Bac baculovirus expression system measured after 2 hrs by ELISA method.
A short description of data set [23]: Oral bioavailability in CD-1 mouse at 3 mg/kg measured after 24 hrs by LC-MS/MS analysis. It is filed as ADME, organism-based. The note with it: in vivo.
Data set [24] has as its system BaF3. Description: Cytotoxicity against mouse BaF3 cells expressing EGFR L858R mutant assessed as reduction in cell viability. It is filed as functional, cell-based.

Consider 17 molecules from ChEMBL document CHEMBL5620342, “Recent advances of novel fourth generation EGFR inhibitors in overcoming C797S mutation of lung cancer therapy” (Eur J Med Chem, 2023).

T1 sequence (P00533 25-1210 T790M/C797S/L858R limits assumed): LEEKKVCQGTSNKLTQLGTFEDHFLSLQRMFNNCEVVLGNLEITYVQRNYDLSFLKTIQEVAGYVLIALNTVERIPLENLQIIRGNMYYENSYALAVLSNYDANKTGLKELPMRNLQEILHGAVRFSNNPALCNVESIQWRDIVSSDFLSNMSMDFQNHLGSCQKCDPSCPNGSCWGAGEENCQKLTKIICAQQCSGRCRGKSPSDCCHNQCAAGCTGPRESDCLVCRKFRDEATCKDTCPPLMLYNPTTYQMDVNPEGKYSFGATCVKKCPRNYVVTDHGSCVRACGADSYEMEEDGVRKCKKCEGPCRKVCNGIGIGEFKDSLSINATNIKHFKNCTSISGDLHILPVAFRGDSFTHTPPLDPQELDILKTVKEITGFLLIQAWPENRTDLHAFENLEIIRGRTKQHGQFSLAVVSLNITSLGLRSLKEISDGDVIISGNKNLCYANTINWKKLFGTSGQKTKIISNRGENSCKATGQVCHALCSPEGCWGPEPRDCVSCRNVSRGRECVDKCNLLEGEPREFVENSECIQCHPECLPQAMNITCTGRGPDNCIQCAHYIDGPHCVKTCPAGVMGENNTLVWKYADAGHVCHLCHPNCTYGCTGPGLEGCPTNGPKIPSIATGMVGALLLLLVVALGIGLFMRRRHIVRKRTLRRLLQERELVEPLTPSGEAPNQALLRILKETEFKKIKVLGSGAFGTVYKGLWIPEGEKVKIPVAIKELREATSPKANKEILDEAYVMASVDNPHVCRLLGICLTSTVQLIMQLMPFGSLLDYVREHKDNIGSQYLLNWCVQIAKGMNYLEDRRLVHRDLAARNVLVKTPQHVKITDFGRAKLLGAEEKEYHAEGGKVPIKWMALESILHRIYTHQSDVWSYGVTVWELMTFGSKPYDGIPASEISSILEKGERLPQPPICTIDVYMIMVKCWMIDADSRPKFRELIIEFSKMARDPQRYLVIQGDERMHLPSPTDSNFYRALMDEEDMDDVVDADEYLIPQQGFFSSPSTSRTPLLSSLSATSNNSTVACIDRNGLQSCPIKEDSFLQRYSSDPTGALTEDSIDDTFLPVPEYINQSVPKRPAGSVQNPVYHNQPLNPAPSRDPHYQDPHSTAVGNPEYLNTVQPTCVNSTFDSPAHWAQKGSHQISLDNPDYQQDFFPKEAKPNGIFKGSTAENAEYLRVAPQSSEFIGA
Epidermal growth factor receptor (Homo sapiens, UniProt P00533), sequence (P00533 whole entry): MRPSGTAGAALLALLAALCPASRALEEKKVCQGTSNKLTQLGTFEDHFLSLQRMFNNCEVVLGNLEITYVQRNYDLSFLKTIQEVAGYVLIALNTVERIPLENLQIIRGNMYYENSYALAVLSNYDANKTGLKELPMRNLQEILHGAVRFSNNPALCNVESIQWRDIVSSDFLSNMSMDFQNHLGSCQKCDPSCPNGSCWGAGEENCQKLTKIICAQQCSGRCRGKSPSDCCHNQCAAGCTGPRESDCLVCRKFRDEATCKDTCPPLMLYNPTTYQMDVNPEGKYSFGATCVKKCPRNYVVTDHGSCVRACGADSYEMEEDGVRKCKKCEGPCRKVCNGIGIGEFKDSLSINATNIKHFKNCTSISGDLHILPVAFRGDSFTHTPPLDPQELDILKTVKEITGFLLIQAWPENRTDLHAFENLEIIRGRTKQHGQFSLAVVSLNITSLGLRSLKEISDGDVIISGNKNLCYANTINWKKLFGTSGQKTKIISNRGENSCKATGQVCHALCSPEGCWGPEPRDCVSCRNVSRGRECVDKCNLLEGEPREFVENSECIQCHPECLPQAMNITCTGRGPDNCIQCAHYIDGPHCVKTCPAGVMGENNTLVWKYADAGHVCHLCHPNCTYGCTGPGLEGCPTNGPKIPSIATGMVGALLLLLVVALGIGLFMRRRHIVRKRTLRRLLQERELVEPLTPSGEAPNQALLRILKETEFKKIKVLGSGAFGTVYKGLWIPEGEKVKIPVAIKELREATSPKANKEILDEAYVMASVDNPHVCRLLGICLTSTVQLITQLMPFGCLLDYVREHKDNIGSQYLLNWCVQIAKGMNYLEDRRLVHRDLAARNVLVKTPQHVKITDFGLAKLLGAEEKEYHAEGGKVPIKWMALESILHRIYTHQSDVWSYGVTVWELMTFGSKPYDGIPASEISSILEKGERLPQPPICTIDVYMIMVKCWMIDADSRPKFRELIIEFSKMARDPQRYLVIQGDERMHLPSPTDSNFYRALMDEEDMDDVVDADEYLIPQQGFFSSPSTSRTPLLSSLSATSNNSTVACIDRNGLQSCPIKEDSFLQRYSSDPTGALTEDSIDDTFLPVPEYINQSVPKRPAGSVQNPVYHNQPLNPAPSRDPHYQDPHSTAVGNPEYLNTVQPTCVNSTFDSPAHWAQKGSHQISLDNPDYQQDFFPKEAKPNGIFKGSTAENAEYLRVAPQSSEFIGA
Epidermal growth factor receptor (Homo sapiens, UniProt P00533, T790M/C797S/L858R), sequence (P00533 25-1210 T790M/C797S/L858R limits assumed): as the sequence (P00533 25-1210 T790M/C797S/L858R limits assumed) above

Regarding `CCC(=O)N[C@H]1CC[C@@H](N2C(=O)N(c3ccccc3Cl)Cc3cnc(Nc4ccc(N5CCN(C)CC5)c(C)c4)nc32)CC1`, the IC50 (usually the midpoint of a concentration-inhibition curve) came to 0.29 µM with BaF3 [1] and 0.316 µM in the data set with BaF3 [2].

For the molecule `COc1cc(N2CCN(CCCCCCCC(=O)N[C@@H](C(=O)N3C[C@@H](O)C[C@@H]3C(=O)N[C@H](C)c3ccc(-c4nc(C)cs4)cc3)C(C)(C)C)CC2)ccc1Nc1ncc(Cl)c(Nc2ccccc2P(C)(C)=O)n1`, in “cells”, the midpoint of inhibition, the IC50, lay at 0.02 µM.

In the case of `c1ccc(-c2cc(N3Cc4ccccc4C3)nc3ccccc23)cc1`, the half-inhibitory concentration (IC50) turned out to be 0.0112 µM in [3], 0.0079 µM in data set [4] and 0.124 µM in [5].

Consider `Cc1cc(N2CCN(C(c3ccccc3)c3ccccc3)CC2)nc2ccc(Cl)cc12`, for which the IC50 worked out at 0.0105 µM in [3], 0.00792 µM in data set [4] and 0.136 µM in data set [5].

For `CO[C@@H]1CCN(c2nccc(Nc3cc4c(C(C)C)ccc(N5C[C@H](CS(C)(=O)=O)[C@H]5C)c4cn3)n2)C[C@@H]1F` [TIGOZERTINIB], the IC50 was 0.004 µM in the data set on BaF3 [1] and 0.0032 µM in the data set with BaF3 [2].

Consider `O=C(Nc1nccs1)C(c1cc(F)ccc1O)N1Cc2ccccc2C1=O` (configuration not stated), for which the IC50 in the data set with BaF3 [1] and with BaF3 [6] was over 10 µM each time.

For the molecule `N#Cc1ccc(O)c(-c2nc(NCc3cccnc3)c3ccccc3n2)c1`, the inhibition (in general, the share of the control response that was lost under treatment) in the data set on BaF3 [7] was 94.2%.

The molecule `CNC(=O)c1cnc(Nc2ccnc(N3CCC(O)CC3)n2)cc1NC(C)C` returned an IC50 in data set [8] of 0.266 µM.

`CN1CCN(c2ccc(Nc3ncc4cc(CNc5ccccc5)n(C5CCCC5)c4n3)cc2)CC1` gave an IC50 in data set [9] of 0.01 µM.

On to `COc1ccc(-c2c3c4cc(OCCCN(C)C)c(OCCCN(C)C)cc4oc(=O)c3n3ccc4cc(O)c(OC)cc4c23)cc1O`, for which the results for the IC50 in the data set on BaF3 [10] and in the data set on BaF3 [11] were 0.52 µM and 0.127 µM, respectively.

On to `CN1CCN(c2ccc(Nc3ncc(Cl)c(Nc4ccccc4P(C)(C)=O)n3)c(Br)c2)CC1`, for which the inhibition in vivo at 60 mg/kg with PC-9 [12] came to 137%. Further, the IC50 in the data set with BaF3 [13] was determined as 0.12 µM; in the data set on BaF3 [15], 0.09 µM; in the data set with PC-9 [16], 0.18 µM; in data set [17], 0.0024 µM; in [18] it was 0.0031 µM; in the data set with PC-9 [19] it was 0.23 µM. In the data set with PC-9 [14], the inhibition in vivo at 30 mg/kg came out at 83.5%.

On to `CC(C)n1c2cc(Nc3ccnc(-c4cnn(S(=O)(=O)C5CC5)c4)n3)ncc2c2c(OCC(F)(F)F)cc(N3CCN(C)CC3)cc21`, for which the IC50 in data set [9] amounted to 0.00025 µM; with A-431 [20], 1.2 µM; in the data set on A-431 [21], 1.2 µM; in the data set with NIH3T3, 0.02 µM; in data set [22], 0.00028 µM.

Turning to `COc1cc(N2CCC(N3CCN(CCC#Cc4cccc5c4CN(C4CCC(=O)NC4=O)C5=O)CC3)CC2)ccc1Nc1ncc(Cl)c(Nc2ccccc2P(C)(C)=O)n1` (configuration not stated), in data set [23], the bioavailability (commonly dose-corrected exposure relative to a reference, in per cent) stood at 62.3%.

Take `C=CC(=O)Nc1cc(Nc2nccc(-c3cn(C)c4ccccc34)n2)c(OC)cc1N(C)CCN(C)C` [OSIMERTINIB]: the IC50 in the data set with BaF3 [13] worked out at 4.14 µM; with BaF3 [15], 3.38 µM; in the data set with PC-9 [16], 4.85 µM; in the data set on PC-9 [19], 0.08 µM.

For `Cc1cc(N2Cc3ccccc3C2)nc2ccc(Cl)cc12`, the IC50 in [3] is 0.0108 µM; in data set [4] it was 0.00759 µM; in [5], 0.13 µM.

`Oc1ccccc1-c1nc(NCC2CCOC2)c2ccccc2n1` (configuration not stated) showed an inhibition with BaF3 [7] of 91%.

Consider `COc1cc(N2CCN(C(C)=O)CC2)ccc1Nc1ncc(Cl)c(Nc2ccc(NCc3ccc(S(=O)(=O)F)cc3)cc2)n1`, for which the results for the IC50 in the data set on BaF3 [2] and in the data set with BaF3 [24] were over 10 µM and 0.11 µM, respectively.
